Values quoted from earlier work, collected in patent publication US5198423A, “Functional polypeptide containing a cell binding domain and a heparin binding domain of fibronectin” (Takara Shuzo Co., Ltd., priority 1989, dated 1993).

Test system: angiogenesis
Details: chick embryo chorions, rabbit corneas, and hamster cheek pouches

In the case of `C[C@H]1C[C@@H]2[C@H]([C@@H](O)C[C@@]3(C)[C@H]2CC[C@]3(O)C(=O)CO)[C@@]2(C)C=CC(=O)C=C12` [6α-methylprednisolone], the “inhibition of angiogenesis, in words” value is given as “found to inhibit angiogenesis”.

In the case of `C[C@@H]1C[C@H]2[C@@H]3CCC4=CC(=O)C=C[C@]4(C)[C@@]3(F)[C@@H](O)C[C@]2(C)[C@@]1(O)C(=O)CO` [dexamethasone], the “inhibition of angiogenesis, in words” value is given as “found to inhibit angiogenesis”.

In the case of `C[C@]12C=CC(=O)C=C1CC[C@@H]1[C@@H]2[C@@H](O)C[C@@]2(C)[C@H]1CC[C@]2(O)C(=O)CO` [prednisolone], the “inhibition of angiogenesis, in words” value is listed as “found to inhibit angiogenesis”.
